# According to patent EP4793271A1, “NEUROPROTECTIVE AGENT” (National Center of Neurology and Psychiatry, priority 2023, dated 2025):
# Experiments:
# [1] = test system: primary cultured cells of mouse fetus-derived dorsal root ganglia (DRGs); assay: Suppression of axonal degeneration after axotomy in DRG explant culture; assay type: cell-based; conditions: minimum concentration at which axonal degeneration was suppressed (DI 0.3 or less), 24 hours after axotomy; for minimal effective concentration: Mus musculus, read-out: Evaluation on protection against degeneration
# Protocol: The compound of the present invention was studied for its protective effect against axonal injury using primary cultured cells of mouse fetus-derived dorsal root ganglia (DRGs).
# DRGs were collected from a fetus derived from an ICR mouse (13.5 days of pregnancy). DRGs were cultured using a plate coated by incubation with 0.1 mg/mL poly-L-lysine at 4°C for 24 hours or longer, washing with PBS, and then incubation with 2.5 µg/mL Cultrex Mouse Laminin I at 37°C for 4 to 6 hours.
# One of DRGs collected was plated to each well of the coated 24-well plate. The DRG was cultured in a nicotinamide-free medium for neuron (supplemented with 10% FBS, 1 mM glutamine, 50 ng/mL NGF2.5S, and penicillin-streptomycin) for 24 hours at maximum from the start of culture and then cultured in a nicotinamide-free medium for neuron (supplemented with 2% MACS NeuroBrew-21, 50 ng/mL NGF2.5S, 1% Glutamax, 20 µM uridine, 20 µM 5-fluoro-2'-deoxyuridine, and penicillin-streptomycin) for 7 to 8 days.
# The nicotinamide-free medium for neuron was prepared so as to have the same constituents as those of the composition published in a previously reported paper (Brewer et al., J. Neuroscience Research 35: 567-576) except for nicotinamide with reference to this composition.
# The test compound is dissolved in DMSO and added to cells such that the final concentration of DMSO is 0.1% (1000-fold dilution). 10 mM, 1 mM, 100 µM, 10 µM, 1 µM, and 100 nM samples of the test compound are prepared and added at a 1000-fold dilution to cells.
# Axotomy was carried out by scooping out a cell body portion of the cultured DRG with a chip for a micropipette. The test compound was added at the following concentrations (final concentration: 10 µM, 1 µM, 100 nM, 10 nM, 1 nM, and 100 pM) within 30 minutes after axotomy. The compound was evaluated for its protective effect against axonal degeneration by imaging (Leica DMIL microscope, 20× objective lens) the state of neurites 24 hours after axotomy and evaluating the degree of degeneration. The degree of degeneration was quantified using a program uniquely developed using the R language. A degeneration index (DI) was used as an indicator for the degree of degeneration, and the ratio of the area of a fragmented axon to the total area of axons was calculated as defined in the equation of Expression 2. Suppressed axonal degeneration was evaluated when the value of DI was 0.3 or less. The minimum concentration at which axonal degeneration was suppressed was determined for each compound. Degeneratioin index (DI) = (Degenerated axons)/(All axons) [formula]
# The axonal protective activity was evaluated as A ≤ 0.01 µM, 0.01 µM < B ≤ 0.1 µM, and 0.1 µM < C ≤ 1 µM depending on the minimum concentration at which axonal degeneration was suppressed.
# hSARM1 = target: T1, hSARM1 (Homo sapiens, UniProt Q6SZW1); assay: Human SARM1 activity measurement in HEK293 cells transiently transfected with ΔN-hSARM1 (PC6 fluorescent probe); assay type: cell-based; set-up: expressed in transfected cells; host or cells: HEK293, pcDNA3 expression vector; conditions: inhibition rate; compound 30 µM; PC6 50 µM; HEK293 cells expressing ΔN-hSARM1; approximately 48 hours from transfection; read-out: Evaluation on hSARM1 inhibitory
# T1 sequence (Q6SZW1 28-724): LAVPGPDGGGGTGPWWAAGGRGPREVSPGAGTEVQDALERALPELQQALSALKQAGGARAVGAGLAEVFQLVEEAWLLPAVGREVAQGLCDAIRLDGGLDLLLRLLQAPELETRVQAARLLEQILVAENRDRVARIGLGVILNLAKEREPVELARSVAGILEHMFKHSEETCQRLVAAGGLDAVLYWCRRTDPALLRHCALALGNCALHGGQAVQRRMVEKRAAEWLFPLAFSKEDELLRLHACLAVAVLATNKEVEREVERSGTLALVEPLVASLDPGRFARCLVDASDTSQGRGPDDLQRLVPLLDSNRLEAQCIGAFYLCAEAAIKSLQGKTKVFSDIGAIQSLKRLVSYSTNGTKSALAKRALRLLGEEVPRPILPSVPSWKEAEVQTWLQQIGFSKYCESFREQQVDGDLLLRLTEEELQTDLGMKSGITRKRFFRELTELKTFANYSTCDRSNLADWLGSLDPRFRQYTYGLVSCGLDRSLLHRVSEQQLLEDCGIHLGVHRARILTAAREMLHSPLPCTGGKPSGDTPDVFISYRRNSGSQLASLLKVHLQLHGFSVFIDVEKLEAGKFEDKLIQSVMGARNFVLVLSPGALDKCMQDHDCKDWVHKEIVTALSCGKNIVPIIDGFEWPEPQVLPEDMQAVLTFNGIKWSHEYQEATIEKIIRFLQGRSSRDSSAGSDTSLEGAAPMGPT
# Protocol: HEK293 cells cultured in a prepared medium of nicotinamide-free DMEM (Dulbecco's modified Eagle medium) supplemented with 10% FBS (BioSera), a 1% penicillin-streptomycin solution (FUJIFILM Wako Pure Chemical Corp.), 5 μM nicotinamide were inoculated at approximately 50,000 cells/well to a 96-well microplate, and the cells were cultured at 37°C under 5% CO2, transiently transfected on the next day with a pcDNA3 expression vector containing a DNA sequence (SEQ ID NO: 1) deficient in a mitochondrial targeting sequence encoded by an N-terminal 78-base sequence in cDNA encoding human sterile α- and armadillo-motif-containing protein (hSARM1) using PEI MAX(R) reagent (PolySciences Inc.), and forced to express ΔN-hSARM1 (SEQ ID NO: 2). Approximately 8 hours later, PC6, which reacts as a substrate of SARM1-specific base exchange reaction and functions as a fluorescent probe, was added thereto at a final concentration of 50 μM, and intracellular hSARM1 activity was measured (Li et al, eLife 2021 10: e67381). A compound for inhibitory activity evaluation was added at a final concentration of 30 μM at the same time with PC6, while dimethyl sulfoxide (Nacalai Tesque Inc.) was added to samples of a control group at the same time with PC6. The cells were incubated at 37°C under 5% CO2 for approximately 48 hours from transfection, followed by fluorescent signal measurement using SpectraMax M2 (Molecular Devices) (excitation: 405 nm, fluorescence: 525 nm, fluorescence cutoff: 515 nm). Results of this screening are reported as an inhibition rate (%) relative to a negative control defined as follows by using fluorescence intensity measured from a control group without transfection with ΔN-hSARM1 as a background whereas using fluorescence intensity measured from a control group transfected with ΔN-hSARM1 as the negative control. Inhibitory rate (%) = 100-(([…]-Background))/((Signalofthenegativecontrol-Background)) × 100 [formula] The nicotinamide-free medium was prepared so as to have the same composition as that of DMEM having known composition which is generally used in the art except for nicotinamide. […]
structure (smiles),measurement,setting,value
O=C(Cc1cccnc1)NCc1ccc(NC(=O)c2ccccc2)nc1 [Compound 141],Evaluation on protection against degeneration,[1],C (0.1 µM < C ≤ 1 µM)
O=C(NCc1ccc(NC(=O)C23CC4CC(CC(C4)C2)C3)nc1)c1cccnc1 [Compound 142],inhibition at 30 µM,hSARM1,> 75%
same,minimal effective concentration,[1],0.01 to 0.1 µM
O=C(Cc1ccc(Cl)cc1)Nc1ccc(CNC(=O)c2cccnc2)cn1 [Compound 145],inhibition at 30 µM,hSARM1,> 75%
same,minimal effective concentration,[1],≤ 0.01 µM
O=C(COc1ccccc1)Nc1ccc(CNC(=O)c2cccnc2)cn1 [Compound 147],inhibition at 30 µM,hSARM1,> 75%
same,minimal effective concentration,[1],≤ 0.01 µM
O=C(Cc1ccccc1C(F)(F)F)Nc1ccc(CNC(=O)c2cccnc2)cn1 [Compound 155],inhibition at 30 µM,hSARM1,> 75%
same,minimal effective concentration,[1],≤ 0.01 µM
O=C(Cc1cccc(C(F)(F)F)c1)Nc1ccc(CNC(=O)c2cccnc2)cn1 [Compound 156],inhibition at 30 µM,hSARM1,> 75%
same,minimal effective concentration,[1],≤ 0.01 µM
CCC(=O)Nc1ccc(CNC(=O)c2cccnc2)cn1 [Compound 157],inhibition at 30 µM,hSARM1,> 10%
same,Evaluation on protection against degeneration,[1],A (A ≤ 0.01 µM)
O=C(CCc1ccc(OC(F)(F)F)cc1)Nc1ccc(CNC(=O)c2cccnc2)cn1 [Compound 170],inhibition at 30 µM,hSARM1,> 75%
same,minimal effective concentration,[1],≤ 0.01 µM
NCc1ccc(C(=O)N2CCC(CCCCNC(=O)/C=C/c3cccnc3)CC2)cc1 [compound 1],inhibition at 30 µM,hSARM1,> 75%
same,Evaluation on protection against degeneration,[1],A (A ≤ 0.01 µM)
O=C(/C=C/c1cccnc1)NCCCCCCN1CCN(CCO)CC1 [compound 3],inhibition at 30 µM,hSARM1,> 75%
same,minimal effective concentration,[1],≤ 0.01 µM
NCCOCCOCCOCCCCCCCCNC(=O)c1cccnc1 [compound 9],inhibition at 30 µM,hSARM1,> 75%
same,minimal effective concentration,[1],≤ 0.01 µM
O=C(/C=C/c1cccnc1)NCCCNC1CCN(C(=O)c2ccccc2)CC1 [compound 12],inhibition at 30 µM,hSARM1,> 75%
same,minimal effective concentration,[1],0.01 to 0.1 µM
O=C(/C=C/c1cccnc1)NCCOCCOc1ccc(CNC(=O)c2ccccc2)cc1 [compound 14],inhibition at 30 µM,hSARM1,> 75%
same,minimal effective concentration,[1],≤ 0.01 µM
O=C(/C=C/c1cccnc1)NCCCOc1cccc(O)c1 [compound 23],inhibition at 30 µM,hSARM1,> 75%
same,minimal effective concentration,[1],≤ 0.01 µM
COCOc1cccc(OCCCNC(=O)/C=C/c2cccnc2)c1 [compound 24],inhibition at 30 µM,hSARM1,> 75%
same,minimal effective concentration,[1],≤ 0.01 µM
O=C(/C=C/c1cccnc1)NCCOCCOc1cccc(O)c1 [compound 26],inhibition at 30 µM,hSARM1,> 75%
same,minimal effective concentration,[1],≤ 0.01 µM
COCOc1cccc(OCCOCCNC(=O)/C=C/c2cccnc2)c1 [compound 29],inhibition at 30 µM,hSARM1,> 75%
same,minimal effective concentration,[1],≤ 0.01 µM
O=C(/C=C/c1cccnc1)Nc1cccc(OC(=O)/C=C/c2cccnc2)c1 [compound 33],inhibition at 30 µM,hSARM1,> 75%
same,minimal effective concentration,[1],0.01 to 0.1 µM
O=C(/C=C/c1cccnc1)NCCCCCCNC(=O)/C=C/c1cccnc1 [compound 38],inhibition at 30 µM,hSARM1,> 75%
same,minimal effective concentration,[1],≤ 0.01 µM
C/C(=C\C(=O)NCCCCCCNC(=O)/C=C(\C)c1cccnc1)c1cccnc1 [compound 42],inhibition at 30 µM,hSARM1,> 75%
same,minimal effective concentration,[1],≤ 0.01 µM
O=C(NCCCOc1ccc(CNC(=O)c2cccnc2)cc1)c1cccnc1 [compound 52],inhibition at 30 µM,hSARM1,> 50%
same,minimal effective concentration,[1],≤ 0.01 µM
O=C(/C=C/c1cccnc1)NCCCOc1ccc(CNC(=O)c2cccnc2)cc1 [compound 53],inhibition at 30 µM,hSARM1,> 75%
same,minimal effective concentration,[1],≤ 0.01 µM
O=C(NCCOCCOc1ccc(CNC(=O)c2cccnc2)cc1)c1cccnc1 [compound 54],inhibition at 30 µM,hSARM1,> 75%
same,minimal effective concentration,[1],≤ 0.01 µM
O=C(/C=C/c1cccnc1)NCCOCCOc1ccc(CNC(=O)c2cccnc2)cc1 [compound 55],inhibition at 30 µM,hSARM1,> 75%
same,minimal effective concentration,[1],≤ 0.01 µM
C/C(=C\C(=O)NCCOCCOc1ccc(CNC(=O)c2cccnc2)cc1)c1cccnc1 [compound 56],inhibition at 30 µM,hSARM1,> 50%
same,minimal effective concentration,[1],≤ 0.01 µM
O=C(/C=C/c1cccnc1)Nc1ccc(NC(=O)/C=C/c2cccnc2)cc1 [compound 58],inhibition at 30 µM,hSARM1,> 75%
same,minimal effective concentration,[1],≤ 0.01 µM
O=C(/C=C/c1cccnc1)NCc1ccc(NC(=O)/C=C/c2cccnc2)cc1 [compound 62],inhibition at 30 µM,hSARM1,> 75%
same,minimal effective concentration,[1],≤ 0.01 µM
O=C(/C=C/c1ccccc1)NCc1ccc(CNC(=O)c2cccnc2)cc1 [compound 66],inhibition at 30 µM,hSARM1,> 75%
same,minimal effective concentration,[1],≤ 0.01 µM
C#CCCOc1ccc(C(=O)NCCCCCCNC(=O)c2cccnc2)cc1 [compound 68],inhibition at 30 µM,hSARM1,> 75%
same,minimal effective concentration,[1],≤ 0.01 µM
O=C(/C=C/c1cccnc1)NCCCOCCOCCCNC(=O)/C=C/c1cccnc1 [compound 69],inhibition at 30 µM,hSARM1,> 75%
same,minimal effective concentration,[1],≤ 0.01 µM
O=C(/C=C/c1cccnc1)NCc1ccc(NC(=O)c2ccccc2)nc1 [compound 77],inhibition at 30 µM,hSARM1,> 75%
same,minimal effective concentration,[1],≤ 0.01 µM
O=C(Cc1ccc(C(F)(F)F)cc1)Nc1ccc(CNC(=O)c2cccnc2)cn1 [compound 89],inhibition at 30 µM,hSARM1,> 75%
same,minimal effective concentration,[1],≤ 0.01 µM
O=C(NCc1ccc(NC(=O)C2COC2)cc1)c1cccnc1 [compound 93],inhibition at 30 µM,hSARM1,> 50%
same,minimal effective concentration,[1],0.01 to 0.1 µM
CC(C)(C)OC(=O)N1CC(C(=O)Nc2ccc(CNC(=O)c3cccnc3)cn2)C1 [compound 94],inhibition at 30 µM,hSARM1,> 75%
same,minimal effective concentration,[1],≤ 0.01 µM
O=C(Nc1ccc(CCc2ccc(NC(=O)c3cccnc3)cc2)cc1)c1cccnc1 [compound 101],inhibition at 30 µM,hSARM1,> 75%
same,minimal effective concentration,[1],≤ 0.01 µM
